Results taken from US20130309184A1, “1,3-DIOXAN-5-ONE COMPOUNDS” (MERCK PATENT GMBH, priority 2011, published 2013).

Key:
Format in all cases: physicochemical
[1] = Absorption strength (absorption spectrum in ethanol); design: λmax: unit not given here; conditions: for λmax: absorption maximum, dilute solution in ethanol; for E1% value: extinction at the absorption maximum extrapolated to 1 g/100 ml; for E1% value / Half-value width: ethanol; for Half-value width: half-value width of the absorption band
Experimental: The measure used for the absorption strength is the so-called E1% value, and the half-value width of the absorption band in relation to the absorption maximum λmax indicated. The E1% value indicates the extinction at the absorption maximum extrapolated to a concentration of 1 g/100 ml. To this end, an absorption spectrum of the substance in ethanol is recorded in dilute solution. The values are compared with the reference spectra of curcumin and beta-carotene.

[2] = Solubility determination in phenethyl benzoate (X-Tend 226)
Experimental: The solubility determination was carried out in phenethyl benzoate (X-Tend 226): […]

[3] = Thermal stability by thermogravimetry; conditions: for Temperature at which 98% of the weight were still present: TGA, RT to 800° C., heating rate 10K/min; for thermal stabilities: verbal assessment, high-temperature processing possible without decomposition
Experimental: The thermal stability is determined with the aid of the thermogravimetry method (instrument TGA Q5000 V3.10 Build 258, temperature range RT to 800° C., heating rate 10K/min).

[4] = Fluorescence measurements; conditions: in ethanol; measurement concentration 0.00436 mg/ml (Example 4), 0.00048 mg/ml (Example 8), 0.00045 mg/ml (Example 17)
Experimental: The substance concentrations in ethanol indicated in the table are measured using an Aminco Bowman 2 fluorescence spectrometer (cell thickness 1 cm; excitation 220-600 nm; emission 220-800 nm; spectral gap width (excitation) 4 nm, (emission) 8 nm; recording speed 10 nm/min; step width (excitation) 5 nm, (emission) 4 nm.

Compound | λmax [1] | E1% value [1] | Half-value width [1] [nm] | Solubility in X-Tend 226 [2] [%] | Temperature at which 98% of the weight were still present [3] [° ° C.] | thermal stabilities [3] | Emission [4] [nm] | Excitation [4] [nm]
CCCCN(CCCC)c1ccc(/C=C2\OC(C)(OCC)O/C(=C\c3ccc(N(CCCC)CCCC)cc3)C2=O)cc1 (stereo not shown) [Example 8, (4Z,6Z)-4,6-bis[[(4-dibutylamino)phenyl]methylene]-2-ethoxy-2-methyl-1,3-dioxan-5-one] | 486 | 953 | 105 | 2.8 | 274 | excellent | 640 | 485
COc1cc(/C=C/C(=O)CC(=O)/C=C/c2ccc(O)c(OC)c2)ccc1O [Curcumin, curcumin, reference compound] | 426 | 1507 | 78 | 0.4 | 223 | – | – | –
CCCCCCCCOc1ccc(/C=C2\OC(C)(OCC)O/C(=C\c3ccc(OCCCCCCCC)cc3)C2=O)cc1 (stereo not shown) [Example 6, (4Z,6Z)-4,6-bis[(4-octyloxyphenyl)methylene]-2-ethoxy-2-methyl-1,3-dioxan-5-one] | 404 | 557 | 87 | 1.0 | – | – | – | –
CCOC1(C)O/C(=C\c2ccc(OC)cc2)C(=O)/C(=C/c2ccc(OC)cc2)O1 (stereo not shown) [Example 1, (4Z,6Z)-2-ethoxy-4,6-bis[(4-methoxyphenyl)methylene]-2-methyl-1,3-dioxan-5-one] | 402 | 873 | 84 | 2.8 | – | – | – | –
CC1=C(/C=C/C(C)=C/C=C/C(C)=C/C=C/C=C(C)/C=C/C=C(C)/C=C/C2=C(C)CCCC2(C)C)C(C)(C)CCC1 [Beta-carotene, beta-carotene, reference compound] | 453 | 408 | 88 | 0.2 | 84 | – | – | –
CCOC1(C)O/C(=C\c2ccc(N(C)C)cc2OC)C(=O)/C(=C/c2ccc(N(C)C)cc2OC)O1 (stereo not shown) [Example 17, 2-ethoxy-2,6-bis-[1-(4-dimethylamino-2-methoxyphenyl)meth-(Z)ylidene]-2-methyl-1,3-dioxan-5-one] | – | – | – | – | – | – | 632 | 490
CCOC1(C)O/C(=C\c2ccc(OC)cc2OC)C(=O)/C(=C/c2ccc(OC)cc2OC)O1 (stereo not shown) [Example 3] | 419 | 688 | 93 | 1.0 | – | – | – | –

The remaining lines, values ahead:

λmax [1] | E1% value [1] | Half-value width [1] [nm] | Solubility in X-Tend 226 [2] [%] | Temperature at which 98% of the weight were still present [3] [° ° C.] | thermal stabilities [3] | Emission [4] [nm] | Excitation [4] [nm] | Compound
394 | 647 | 85 | 1.1 | – | – | – | – | CCOC1(C)O/C(=C\c2cc(OC)c(OC)c(OC)c2)C(=O)/C(=C/c2cc(OC)c(OC)c(OC)c2)O1 (stereo not shown) [Example 5]
389 | 675 | 84 | 2.2 | – | – | – | – | CCOC1(C)O/C(=C\c2ccc(Oc3ccccc3)cc2)C(=O)/C(=C/c2ccc(Oc3ccccc3)cc2)O1 (stereo not shown) [Example 7, (4Z,6Z)-4,6-bis[(4-phenoxyyphenyl)methylene]-2-ethoxy-2-methyl-1,3-dioxan-5-one]
444 | 304 | 92 | <0.1 | 256 | excellent | 596 | 440 | CCOC1(C)O/C(=C\c2cc(OC)c(OC)cc2OC)C(=O)/C(=C/c2cc(OC)c(OC)cc2OC)O1 (stereo not shown) [Example 4]
412 | 617 | 85 | 1.2 | – | – | – | – | CCOC1(C)O/C(=C\c2ccc(OC)c(OC)c2)C(=O)/C(=C/c2ccc(OC)c(OC)c2)O1 (stereo not shown) [Example 2]
